Test results taken from patent publication US10329334B2 (SANOFI, priority 2015, dated 2019).

Legend:
[1] = target: T1, human lipocalin 2 (hNGAL) mutein SEQ ID NO: 53 (Homo sapiens, UniProt P80188, A60L/C107S/D97K/I61A/K154W/K93H/L123Q/L56E/L62R/L90R/N116L/N85D/Q69M/R101V/S125P/S147V/S88E/W99D/Y120D/Y126E/Y72M); test: SPR (Biacore T200), mutein SEQ ID NO: 53; format: binding; conditions: 25° C.
T1 construct: made in house; host or cells: E. coli
Method: (§1) In a Surface Plasmon Resonance (SPR) based assay a Biacore T200 instrument (GE Healthcare) was used to measure the binding affinity of muteins to pyoverdine I succinyl, -succinamid, -α-ketoglutaryl with complexed iron ion or to pyoverdine II succinyl, -succinamid, -α-ketoglutaryl with complexed iron ion or to pyoverdine III succinyl, -succinamid, -α-ketoglutaryl with complexed iron ion. Muteins selected for binding to pyoverdines and negative control (SEQ ID NO: 64) were biotinylated for 2 h at room temperature applying an appropriate excess of EZ-Link NHS-PEG4-Biotin (Thermo, […]) followed by separation of non-reacted Biotin using a Zeba Spin Desalting Plate (Thermo, […]) according to the manufactures instructions.
In the SPR affinity assay, biotinylated muteins and negative control were captured on a sensor chip CAP using the Biotin CAPture Kit (GE Healthcare): Sensor Chip CAP is pre-immobilized with an ssDNA oligo. […]
(§2) Applying a flow rate of 30 μl/min, a single cycle or multi cycle kinetics approach was used with a sample contact time of 120-180 s and a dissociation time of 900-2400 s. […] After ligand immobilization, for analysis using single cycle kinetics all 4-5 concentrations of Pvd were applied consecutively in ascending order before the dissociation was monitored. […] Data were evaluated with Biacore T200 Evaluation software (V 1.0). […]

[2] = target: T2, human lipocalin 2 (hNGAL) mutein SEQ ID NO: 16 (Homo sapiens, UniProt P80188, A60T/C107S/D97I/I100T/I61A/K145Y/K154N/K93E/K95E/L123Q/L56W/L90Q/N116G/N85D/Q69P/R101I/R92P/S147T/S88D/T156A/T74V/W99S/Y120S/Y126H/Y152G/Y72P); test: SPR (Biacore T200), mutein SEQ ID NO: 16; format: binding; conditions: 25° C.
T2 construct: made in house; host or cells: E. coli
T2 sequence (P80188 21-198 with the stated changes): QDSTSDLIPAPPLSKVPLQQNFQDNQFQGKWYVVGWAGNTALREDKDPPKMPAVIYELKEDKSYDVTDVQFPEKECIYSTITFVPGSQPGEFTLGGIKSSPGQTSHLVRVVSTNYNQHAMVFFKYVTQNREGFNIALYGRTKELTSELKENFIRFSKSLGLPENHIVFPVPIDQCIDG
Method: (§6) In a Surface Plasmon Resonance (SPR) based assay a Biacore T200 instrument (GE Healthcare) was used to measure the binding affinity of muteins to pyoverdine I succinyl, -succinamid, -α-ketoglutaryl with complexed iron ion or to pyoverdine II succinyl, -succinamid, -α-ketoglutaryl with complexed iron ion or to pyoverdine III succinyl, -succinamid, -α-ketoglutaryl with complexed iron ion. Muteins selected for binding to pyoverdines and negative control (SEQ ID NO: 64) were biotinylated for 2 h at room temperature applying an appropriate excess of EZ-Link NHS-PEG4-Biotin (Thermo, Cat#21329) followed by separation of non-reacted Biotin using a Zeba Spin Desalting Plate (Thermo, Cat#21329) according to the manufactures instructions.

[3] = target: T3, human lipocalin 2 (hNGAL) mutein SEQ ID NO: 10 (Homo sapiens, UniProt P80188, A60T/C107S/D97T/I61T/K145Y/K154N/K93E/L123E/L56W/L90Q/N116D/Q48H/Q69P/R101I/R92P/S147D/S88D/V131M/W99S/Y120N/Y126H/Y152G/Y72P); test: SPR (Biacore T200), mutein SEQ ID NO: 10; format: binding; conditions: 25° C.
T3 construct: made in house; host or cells: E. coli
T3 sequence (P80188 other isoform, or with tags, fused parts or gaps with the stated changes): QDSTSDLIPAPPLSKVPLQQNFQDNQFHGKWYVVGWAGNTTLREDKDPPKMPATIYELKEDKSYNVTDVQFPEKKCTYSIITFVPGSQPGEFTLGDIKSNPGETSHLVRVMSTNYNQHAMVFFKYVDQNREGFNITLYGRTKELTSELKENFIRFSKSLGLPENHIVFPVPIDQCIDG
Method: as §6

[4] = target: T4, human lipocalin 2 (hNGAL) mutein SEQ ID NO: 11 (Homo sapiens, UniProt P80188, A60T/C107S/D97V/I61T/K145Y/K154N/K93D/L123N/L56W/L90Q/N116G/Q48H/Q69P/R101I/R92P/S147V/S88D/W99S/Y120N/Y126H/Y152G/Y72P); test: SPR (Biacore T200), mutein SEQ ID NO: 11; format: binding; conditions: 25° C.
T4 construct: made in house; host or cells: E. coli
T4 sequence (P80188 21-198 with the stated changes): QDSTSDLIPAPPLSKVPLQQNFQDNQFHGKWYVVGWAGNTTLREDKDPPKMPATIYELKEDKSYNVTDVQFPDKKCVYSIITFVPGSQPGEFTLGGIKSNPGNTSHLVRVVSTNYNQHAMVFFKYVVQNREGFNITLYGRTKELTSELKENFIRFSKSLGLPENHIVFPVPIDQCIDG
Method: as §6

[5] = target: T5, human lipocalin 2 (hNGAL) mutein SEQ ID NO: 8 (Homo sapiens, UniProt P80188, A60T/C107S/D97I/I100T/I61T/K145Y/K154N/K93E/L123Q/L56W/L90Q/N116G/Q48H/Q69P/R101I/R92P/S147I/S88D/W99S/Y120S/Y126H/Y152G/Y72P); test: SPR (Biacore T200), mutein SEQ ID NO: 8; format: binding; conditions: 25° C.
T5 construct: made in house; host or cells: E. coli
T5 sequence (P80188 other isoform, or with tags, fused parts or gaps with the stated changes): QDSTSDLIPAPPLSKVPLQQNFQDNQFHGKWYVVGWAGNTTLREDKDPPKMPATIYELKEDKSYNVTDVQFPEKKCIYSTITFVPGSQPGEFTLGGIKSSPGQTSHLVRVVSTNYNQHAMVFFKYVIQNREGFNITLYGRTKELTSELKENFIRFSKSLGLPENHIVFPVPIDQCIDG
Method: as §6

[6] = target: T6, human lipocalin 2 (hNGAL) mutein SEQ ID NO: 32 (Homo sapiens, UniProt P80188, A60E/C107S/D97N/E64D/I61V/K145N/K154W/K93N/L123V/L56V/L90R/N116K/N85D/Q48H/Q69G/R101E/R92H/S147K/S88E/W99F/Y120N/Y126M/Y152G/Y72P); test: SPR (Biacore T200), mutein SEQ ID NO: 32; format: binding; conditions: 25° C.
T6 construct: made in house; host or cells: E. coli
T6 sequence (P80188 21-198 with the stated changes): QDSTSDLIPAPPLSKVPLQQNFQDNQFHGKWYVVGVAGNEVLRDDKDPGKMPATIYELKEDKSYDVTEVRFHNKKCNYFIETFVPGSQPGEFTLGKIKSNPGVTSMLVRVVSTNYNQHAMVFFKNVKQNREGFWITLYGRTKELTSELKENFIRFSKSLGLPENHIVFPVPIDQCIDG
Method: as §6
(§7) Applying a flow rate of 30 μl/min, a single cycle or multi cycle kinetics approach was used with a sample contact time of 120-180 s and a dissociation time of 900-2400 s. […] After ligand immobilization, for analysis using single cycle kinetics all 4-5 concentrations of Pvd were applied consecutively in ascending order before the dissociation was monitored. For analysis using multi cycle kinetics 4 dilutions of Pvd were applied, each followed a dissociation phase. All measurements were performed at 25° C. […] Data were evaluated with Biacore T200 Evaluation software (V 1.0). Double referencing was used. A 1:1 Binding model was used to fit the raw data.

[7] = target: T7, human lipocalin 2 (hNGAL) mutein SEQ ID NO: 35 (Homo sapiens, UniProt P80188, A60T/C107S/D97H/K145I/K154W/K93R/L123T/L56V/L90R/N85Q/Q48H/Q69G/R101D/R92I/S147R/S88D/T74A/W99Y/Y126Q/Y152I/Y72N); test: SPR (Biacore T200), mutein SEQ ID NO: 35; format: binding
T7 construct: made in house; host or cells: E. coli
T7 sequence (P80188 21-198 with the stated changes): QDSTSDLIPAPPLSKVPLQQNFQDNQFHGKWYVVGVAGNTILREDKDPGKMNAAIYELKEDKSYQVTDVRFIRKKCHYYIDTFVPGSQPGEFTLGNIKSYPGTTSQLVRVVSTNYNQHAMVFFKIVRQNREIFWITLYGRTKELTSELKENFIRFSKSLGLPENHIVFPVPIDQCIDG
Method: as §6, §7

[8] = target: T8, human lipocalin 2 (hNGAL) mutein SEQ ID NO: 36 (Homo sapiens, UniProt P80188, A60T/C107S/D97H/K145I/K154W/K93R/L123T/L56V/L90R/N85D/Q69G/R101D/R92I/S147R/S88D/T74A/W99Y/Y126Q/Y152I/Y72N); test: SPR (Biacore T200), mutein SEQ ID NO: 36; format: binding; conditions: 25° C.
T8 construct: made in house; host or cells: E. coli
T8 sequence (P80188 21-198 with the stated changes): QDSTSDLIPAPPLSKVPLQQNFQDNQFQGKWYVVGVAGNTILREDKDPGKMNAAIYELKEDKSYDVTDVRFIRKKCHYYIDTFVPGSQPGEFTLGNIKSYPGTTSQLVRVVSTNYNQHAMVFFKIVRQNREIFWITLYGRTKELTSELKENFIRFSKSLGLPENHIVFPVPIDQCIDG
Method: as §6

[9] = target: T9, human lipocalin 2 (hNGAL) mutein SEQ ID NO: 13 (Homo sapiens, UniProt P80188, A60T/C107S/D97I/I100T/I61T/K145Y/K154N/K93E/K95E/L123Q/L56W/L90Q/N116G/Q48H/Q69P/R101I/R92P/S147T/S88D/T74V/W99S/Y120S/Y126H/Y152G/Y72P); test: SPR (Biacore T200), mutein SEQ ID NO: 13; format: binding; conditions: 25° C.
T9 construct: made in house; host or cells: E. coli
T9 sequence (P80188 21-198 with the stated changes): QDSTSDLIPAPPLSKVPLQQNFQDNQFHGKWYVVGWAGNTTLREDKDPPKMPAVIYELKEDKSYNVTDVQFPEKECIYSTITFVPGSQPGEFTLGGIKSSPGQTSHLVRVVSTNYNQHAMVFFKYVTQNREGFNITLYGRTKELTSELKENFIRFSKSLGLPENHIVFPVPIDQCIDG
Method: as §6

[10] = target: T10, human lipocalin 2 (hNGAL) mutein SEQ ID NO: 9 (Homo sapiens, UniProt P80188, A60T/C107S/D97I/I61T/K145Y/K154N/K93D/L123D/L56W/L90Q/N116G/Q48H/Q69P/R101I/R92P/S147V/S88D/W99S/Y120N/Y126H/Y152G/Y72P); test: SPR (Biacore T200), mutein SEQ ID NO: 9; format: binding; conditions: 25° C.
T10 construct: made in house; host or cells: E. coli
T10 sequence (P80188 other isoform, or with tags, fused parts or gaps with the stated changes): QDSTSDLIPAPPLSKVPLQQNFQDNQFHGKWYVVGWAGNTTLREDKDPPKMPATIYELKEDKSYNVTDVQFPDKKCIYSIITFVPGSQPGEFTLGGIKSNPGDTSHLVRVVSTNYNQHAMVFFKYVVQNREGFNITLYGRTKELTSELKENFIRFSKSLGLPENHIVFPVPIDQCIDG
Method: as §6

[11] = target: T11, human lipocalin 2 (hNGAL) mutein SEQ ID NO: 33 (Homo sapiens, UniProt P80188, A60E/C107S/D97N/E64D/I61V/K145N/K154W/K93N/L123V/L56V/L90R/N116K/N85Q/Q48H/Q69G/R101E/R92H/S147K/S88E/W99F/Y120N/Y126M/Y152G/Y72P); test: SPR (Biacore T200), mutein SEQ ID NO: 33; format: binding; conditions: 25° C.
T11 construct: made in house; host or cells: E. coli
T11 sequence (P80188 21-198 with the stated changes): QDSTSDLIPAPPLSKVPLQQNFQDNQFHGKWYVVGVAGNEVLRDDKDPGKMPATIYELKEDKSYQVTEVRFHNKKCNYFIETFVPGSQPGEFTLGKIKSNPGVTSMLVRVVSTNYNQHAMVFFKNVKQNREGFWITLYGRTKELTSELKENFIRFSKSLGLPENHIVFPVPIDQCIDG
Method: as §6, §7

[12] = target: natural wild-type hNGAL (human lipocalin 2) (Homo sapiens, UniProt P80188); conditions: Peek et al. 2012; cited from earlier work
Sequence of natural wild-type hNGAL (human lipocalin 2) (P80188 21-198): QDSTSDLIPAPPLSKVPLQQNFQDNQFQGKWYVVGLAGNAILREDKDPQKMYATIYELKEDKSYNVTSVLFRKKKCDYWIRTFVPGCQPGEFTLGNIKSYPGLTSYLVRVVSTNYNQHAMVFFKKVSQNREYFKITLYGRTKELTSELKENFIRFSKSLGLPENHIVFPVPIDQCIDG

[13] = target: T12, human lipocalin 2 (hNGAL) mutein SEQ ID NO: 56 (Homo sapiens, UniProt P80188, A60F/C107S/D97A/I61H/K145G/K154V/K93A/L123M/L56M/L90P/N116A/Q48H/Q69S/R101I/R92W/S147W/S88H/W99K/Y120G/Y126W/Y152T/Y72P); test: Solution binding ELISA, mutein SEQ ID NO: 56
T12 construct: made in house; host or cells: E. coli
T12 sequence (P80188 21-198 with the stated changes): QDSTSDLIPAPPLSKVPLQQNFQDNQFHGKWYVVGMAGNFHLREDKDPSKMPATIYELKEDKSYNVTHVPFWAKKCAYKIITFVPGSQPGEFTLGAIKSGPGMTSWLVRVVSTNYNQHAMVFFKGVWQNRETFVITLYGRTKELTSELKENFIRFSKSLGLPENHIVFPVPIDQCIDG
Method: (§8) In detail, a 384-well plate suitable for fluorescence measurements (Greiner FLUOTRAC™ 600, black flat bottom, high-binding) was coated with 20 μl of Neutravidin at a concentration of 5 μg/ml in PBS over night at 4 C. After washing, the Neutravidin-coated wells were blocked with 100 μl blocking buffer containing 0.1% Tween 20 and 2% BSA (PBS-T/BSA) for 1 h at room temperature.
(§9) The residual supernatants were discarded and 20 μl HRP-labeled anti-hNGAL antibody was added at a predetermined optimal concentration in PBS-T/BSA and incubated for 1 h at RT. […] After washing, 20 μl fluorogenic HRP substrate (QuantaBlu, Thermo) was added to each well, and the reaction was allowed to proceed for 15 to 60 minutes. The fluorescence intensity of every well on the plate was read using a fluorescence microplate reader (Tecan or Molecular Devices). […] Curve fitting was performed using GraphPad Prism 4 software.

[14] = target: T13, human lipocalin 2 (hNGAL) mutein SEQ ID NO: 57 (Homo sapiens, UniProt P80188, A60Y/C107S/D97R/I61W/K145L/K154N/K93R/L123Q/L56V/L90R/N116P/Q48H/Q69A/R101W/R92W/S147R/S88D/W99D/Y120E/Y126R/Y152A); test: Solution binding ELISA, mutein SEQ ID NO: 57
T13 construct: made in house; host or cells: E. coli
T13 sequence (P80188 21-198 with the stated changes): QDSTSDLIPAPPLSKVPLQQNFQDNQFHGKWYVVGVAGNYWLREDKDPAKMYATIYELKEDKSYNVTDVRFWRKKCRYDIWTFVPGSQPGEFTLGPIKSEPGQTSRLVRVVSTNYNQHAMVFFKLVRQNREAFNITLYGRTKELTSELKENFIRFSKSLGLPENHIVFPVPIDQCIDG
Method: as §8, §9

[15] = target: T14, human lipocalin 2 (hNGAL) muteins from affinity optimization of SEQ ID NO: 55 (Homo sapiens, UniProt P80188); test: Solution binding ELISA, muteins from affinity optimization of SEQ ID NO: 55
T14 construct: C-terminal SA linker and Strep-tag II; E. coli
T14 sequence (P80188 21-198, stated change not applied): as the sequence (P80188 21-198) above
Method: (§3) Solution binding of muteins was assayed by a “Solution binding ELISA”, the principle of which was as follows: a constant concentration of the tested mutein was incubated with variable concentrations of ligands (Pvd I s, sa, aKG+/−Fe/Pvd II s, sa, aKG+/−Fe/Pvd III s, sa, aKG+/−Fe/Pch+/−Fe) for 1 h. After this pre-incubation in solution, an aliquot of the mutein/ligand mixture was transferred to an ELISA plate with biotinalyted Pvd I s (+Fe), Pvd II s (+Fe), Pvd III s (+Fe) or Pch immobilized via Neutravidin to measure the remaining concentration of free muteins. The concentration of free (non ligand-bound) muteins was determined via a quantitative ELISA setup.
(§4) In detail, a 384-well plate suitable for fluorescence measurements (Greiner FLUOTRAC™ 600, black flat bottom, high-binding) was coated with 20 μl of Neutravidin at a concentration of 5 μg/ml in PBS over night at 4 C. […]
(§5) The residual supernatants were discarded and 20 μl HRP-labeled anti-hNGAL antibody was added at a predetermined optimal concentration in PBS-T/BSA and incubated for 1 h at RT. […] The fluorescence intensity of every well on the plate was read using a fluorescence microplate reader (Tecan or Molecular Devices). To evaluate the data, free mutein concentration, c(mutein)free, was calculated based on the standard curve results, and plotted versus ligand concentration, c(Ligand). […]

[16] = target: T15, human lipocalin 2 (hNGAL) muteins from affinity optimization of SEQ ID NO: 56 (Homo sapiens, UniProt P80188); test: Solution binding ELISA, muteins from affinity optimization of SEQ ID NO: 56
T15 construct: C-terminal SA linker and Strep-tag II; E. coli
T15 sequence (P80188 21-198, stated change not applied): as the sequence (P80188 21-198) above
Method: as §3, §4, §5

[17] = target: negative control lipocalin SEQ ID NO: 64 (Homo sapiens, UniProt P80188, C107S/Q48H); test: SPR (Biacore T200), negative control SEQ ID NO: 64; format: binding; conditions: 200 nM
Sequence of negative control lipocalin SEQ ID NO: 64 (P80188 21-198 Q48H/C107S): as the sequence (P80188 21-198) above, with Q28H, C87S counted along it
Method: as §1
In the SPR affinity assay, biotinylated muteins and negative control were captured on a sensor chip CAP using the Biotin CAPture Kit (GE Healthcare): Sensor Chip CAP is pre-immobilized with an ssDNA oligo. Undiluted Biotin CAPture Reagent (streptavidin conjugated with the complementary ss-DNA oligo) was applied at a flow rate of 2 μl/min for 300 s. Subsequently, 1 μg/ml to 100 μg/mL of biotinylated muteins or negative control were applied for 300 s at a flow rate of 5 μl/min. The reference channel was loaded with Biotin CAPture Reagent only.
as §2, with “monitored. For analysis using multi cycle kinetics 4 dilutions of Pvd were applied, each followed a dissociation phase. All measurements were performed at 25° C.” for “monitored.”, “1.0). Double referencing was used. A 1:1 Binding model was used to fit the raw data.” for “1.0).”

T1 sequence (P80188 21-198 with the stated changes): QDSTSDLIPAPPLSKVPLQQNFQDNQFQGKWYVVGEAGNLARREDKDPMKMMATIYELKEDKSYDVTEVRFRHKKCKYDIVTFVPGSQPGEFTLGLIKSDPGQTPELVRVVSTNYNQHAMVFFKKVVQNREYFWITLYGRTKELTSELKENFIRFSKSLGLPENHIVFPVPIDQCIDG

O=C(N[C@H]1COC(=O)[C@@H](NC(=O)c2cccc(O)c2O)COC(=O)[C@@H](NC(=O)c2cccc(O)c2O)COC1=O)c1cccc(O)c1O.[Fe+3] [Fe-Enterobactin, enterobactin]
KD [1]: no bdg. | KD [2]: no bdg. | KD [3]: no bdg. | KD [4]: no bdg. | KD [5]: no bdg. | KD [6]: no bdg. | KD ([7]; 25° C.): no bdg. | KD [8]: no bdg. | KD [9]: no bdg. | KD [10]: no bdg. | KD [11]: no bdg.

O=C(N[C@H]1COC(=O)[C@@H](NC(=O)c2cccc(O)c2O)COC(=O)[C@@H](NC(=O)c2cccc(O)c2O)COC1=O)c1cccc(O)c1O [Enterobactin, enterobactin, reference compound]
specificity and crossreactivity (binding) ([7]; 2 μM for all analytes): absence of binding | binding to wild-type hNGAL [12]: high affinity

CN1C([C@H]2CSC(c3ccccc3O)=N2)SC[C@H]1C(=O)O (stereo partly shown) [pch (−Fe), pyochelin]
affinity (in words) [13]: weak affinity or not at all | affinity (in words) [14]: weak affinity or not at all | improved affinity ([15]; versus SEQ ID NO: 55): more than 75 fold

Pyoverdine
binding to wild-type hNGAL [12]: did not bind

CN1C([C@H]2CSC(c3ccccc3O)=N2)SC[C@H]1C(=O)O.[Fe+3] (stereo partly shown) [pch (+Fe), pyochelin]
affinity (in words) [13]: two- to three digit nM affinity | affinity (in words) [16]: no or weak affinity | absence of binding to negative control [17]: absence of binding | affinity (in words) [14]: two- to three digit nM affinity | affinity (in words) ([15]; solution binding ELISA): single digit nM affinity
